In patent US20240182460A1, “ALLOSTERIC CHROMENONE INHIBITORS OF PHOSPHOINOSITIDE 3-KINASE (PI3K) FOR THE TREATMENT OF DISEASE” (PETRA PHARMA CORPORATION, priority 2022, published 2024):

Target: T1, PI3Kα E545K (Homo sapiens, UniProt P42336, E545K)
Experiment: PI3Kα E545K mutant in vitro cell based assay, MCF-7 cells
Details: MCF-7 cell line, 0% FBS, 3 hours treatment
Description: PI3K-Alpha Kinase (PI3Kα) Activity: Wild-Type PI3Kα, H1047R Mutant PI3Kα, and E545K Mutant PI3Kα In Vitro Cell Based Assays and Determination of IC50 Values for Inhibitors
The MDA-MB-453 (ATCC-HTB-131) cell line (PI3Kα H1047R) and MCF-7 (ATCC-HTB-22) cell line (PI3Kα E545K), MDA-MB-361 (ATCC-HTB-27) cell line (PI3Kα E545K), and SKBR3 (ATCC-HTB-30) cell line (wild type PI3Kα) were obtained from the American Type Culture Collection (Manassas, VA). MDA-MB-453 cells were maintained in Dulbecco's Modified Eagle Media (DMEM, Gibco 12430) supplemented with 10% Fetal Bovine Serum, heat inactivated (FBS HI, Gibco 10082), 1× non-essential amino acids (NEAA, Gibco 11140), 1 mM sodium pyruvate (Gibco 11360) and 1× Anti-Anti (Gibco 15240). MCF-7 cells were maintained in Minimum Essential Media (MEM) (Gibco 11095) supplemented with 10% Fetal Bovine Serum, heat inactivated (FBS HI, Gibco 10082), 1× non-essential amino acids (NEAA, Gibco 11140), 1 mM sodium pyruvate (Gibco 11360), 1× Anti-Anti (Gibco 15240) and 10 μg/mL human insulin (Sigma I 9278). MDA-MB-361 cells were maintained in Dulbecco's Modified Eagle Media (DMEM, Gibco 12430) supplemented with 20% Fetal Bovine Serum, heat inactivated (FBS HI, Gibco 10082), 1× non-essential amino acids (NEAA, Gibco 11140), 1 mM sodium pyruvate (Gibco 11360) and 1× Anti-Anti (Gibco 15240). SKBR3 cells were maintained in McCoy's 5A (Gibco 16600) supplemented with 10% Fetal Bovine Serum, heat inactivated (FBS HI, Gibco 10082), and 1× Anti-Anti (Gibco 15240). Cultures were maintained in a humidified incubator at 37° C. under 5% CO2/95% air.
For compound testing in 0% FBS, MDA-MB-453, MCF-7 and SKBR3 cells were seeded at a density of 1.5×10^4, 1.0×10^4, and 1.0×10^4 cells, respectively, per well in white 384-well plates in 20 μl of Minimum Essential Media (MEM) assay media with 1×NEAA, 1 mM sodium pyruvate, and 1 μg/mL human insulin (Sigma 19278) (Assay Medium); while MDA-MB-361 cells were seeded at a density of 1.5×10^4 per well in white 384-well plates in 20 μl Assay Medium without insulin. After plating, cells were allowed to attach overnight. Compounds dissolved in 10 mM stock solutions in DMSO were serially diluted 1:3 in DMSO to generate a 10-point dilution series and plated using an acoustic liquid handler system (Echo 550 Series Liquid Handler, Labcyte). A 5× intermediate compound dilution plate in MEM with 1×NEAA and 1 mM sodium pyruvate (150 μM starting compound concentration in 1.5% DMSO) was then prepared. Five μl of the intermediate serially diluted compounds were added to the cell plate to final concentrations ranging from […] in 0.3% DMSO. 0.3% DMSO alone was used to establish the maximum (MAX) signal and GDC-0032 at a final concentration of 1 μM was used as a reference compound for the minimum (MIN) signal. After 3 hours treatment, the medium was removed, and the cells were lysed in 10 μL of 1× SureFire Lysis buffer with shaking for 10 minutes at room temperature. The Acceptor Mix (Reaction Buffer 1+Reaction Buffer 2+Activation Buffer+SureFire Ultra Acceptor Beads) was prepared by diluting Activation buffer 25-fold in combined Reaction Buffer 1 and Reaction Buffer 2.
The Acceptor beads were diluted 50-fold in the combined Reaction Buffers. Five μL of Acceptor Mix was added to each well, the plate was sealed and covered with foil and incubated for 1 hour at room temperature. The Donor Mix (dilution buffer+SureFire Ultra Donor Beads) was prepared by diluting Donor Beads 50-fold in dilution buffer. Five μL of the Donor Mix was added to each well and the plate sealed and covered with foil and incubated for 1-2 hours at room temperature in the dark. The plates were read on a Neo2 plate reader instrument from Biotek using standard AlphaLisa settings.
Compounds were tested in duplicate and the % inhibition at each compound concentration was used to generate two dose response curves. One IC50 was generated using average % inhibition at each compound concentration. […]

T1 sequence (P42336 whole entry E545K): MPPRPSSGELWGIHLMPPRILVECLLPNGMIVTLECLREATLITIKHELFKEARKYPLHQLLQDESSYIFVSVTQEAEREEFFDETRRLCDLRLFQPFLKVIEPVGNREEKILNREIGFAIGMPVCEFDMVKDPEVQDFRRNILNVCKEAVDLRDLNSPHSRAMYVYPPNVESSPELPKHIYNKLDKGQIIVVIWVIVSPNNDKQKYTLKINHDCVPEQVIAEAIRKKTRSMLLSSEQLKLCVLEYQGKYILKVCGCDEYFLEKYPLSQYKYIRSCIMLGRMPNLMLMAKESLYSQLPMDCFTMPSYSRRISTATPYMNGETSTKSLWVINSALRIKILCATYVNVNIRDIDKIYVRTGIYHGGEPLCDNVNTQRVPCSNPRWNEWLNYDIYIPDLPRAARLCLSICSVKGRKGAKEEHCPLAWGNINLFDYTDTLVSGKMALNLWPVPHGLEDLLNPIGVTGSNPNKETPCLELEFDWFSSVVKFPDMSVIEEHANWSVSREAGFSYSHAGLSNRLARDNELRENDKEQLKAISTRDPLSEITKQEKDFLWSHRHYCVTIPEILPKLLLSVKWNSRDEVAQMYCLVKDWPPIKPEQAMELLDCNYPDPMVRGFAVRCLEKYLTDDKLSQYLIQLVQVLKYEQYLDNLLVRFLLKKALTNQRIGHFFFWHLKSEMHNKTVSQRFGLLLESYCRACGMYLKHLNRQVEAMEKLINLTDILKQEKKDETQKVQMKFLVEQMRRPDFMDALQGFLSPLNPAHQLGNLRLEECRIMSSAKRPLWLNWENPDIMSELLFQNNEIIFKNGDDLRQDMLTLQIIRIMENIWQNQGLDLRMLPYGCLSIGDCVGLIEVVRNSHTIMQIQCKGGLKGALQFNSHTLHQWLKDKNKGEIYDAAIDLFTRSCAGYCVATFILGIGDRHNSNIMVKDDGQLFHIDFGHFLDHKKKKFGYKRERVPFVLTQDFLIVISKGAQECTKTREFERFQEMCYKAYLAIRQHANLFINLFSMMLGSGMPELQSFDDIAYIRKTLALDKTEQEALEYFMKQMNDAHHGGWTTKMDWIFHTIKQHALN
T1 sequence (P27986 whole entry partner): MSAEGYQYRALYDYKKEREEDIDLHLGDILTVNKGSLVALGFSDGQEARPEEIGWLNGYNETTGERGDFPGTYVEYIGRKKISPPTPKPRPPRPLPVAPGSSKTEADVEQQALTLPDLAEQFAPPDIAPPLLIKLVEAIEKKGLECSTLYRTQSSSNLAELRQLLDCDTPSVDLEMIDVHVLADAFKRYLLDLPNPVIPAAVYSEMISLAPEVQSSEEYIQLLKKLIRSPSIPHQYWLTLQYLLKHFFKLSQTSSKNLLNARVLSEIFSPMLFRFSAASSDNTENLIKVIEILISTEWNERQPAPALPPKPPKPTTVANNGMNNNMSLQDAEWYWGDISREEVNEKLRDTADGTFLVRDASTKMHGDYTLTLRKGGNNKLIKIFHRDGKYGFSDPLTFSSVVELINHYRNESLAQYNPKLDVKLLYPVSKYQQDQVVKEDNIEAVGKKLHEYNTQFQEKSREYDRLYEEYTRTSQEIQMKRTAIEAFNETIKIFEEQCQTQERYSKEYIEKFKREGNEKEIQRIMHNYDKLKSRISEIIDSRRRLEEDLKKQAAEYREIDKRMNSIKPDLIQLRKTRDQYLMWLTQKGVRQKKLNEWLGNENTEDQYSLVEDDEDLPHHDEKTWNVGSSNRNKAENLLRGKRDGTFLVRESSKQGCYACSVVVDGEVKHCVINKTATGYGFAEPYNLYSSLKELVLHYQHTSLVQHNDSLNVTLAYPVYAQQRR

SMILES	IC50 [nM]
Cc1cc([C@@H](C)Oc2ccc(Cl)nc2S(N)(=O)=O)c2oc(C3(CCO)CC3)c(C)c(=O)c2c1 [Example 127C, 6-Chloro-3-[(1R)-1-[2-[1-(2-hydroxyethyl)cyclopropyl]-3,6-dimethyl-4-oxo-chromen-8-yl]ethoxy]pyridine-2-sulfonamide]	< 500
Cc1cc([C@@H](C)Oc2ccc(Cl)nc2C(N)=O)c2oc(-c3ccc4nn(CC5(O)CC5)cc4c3)c(C)c(=O)c2c1 [Example 130C, 6-Chloro-3-[(1R)-1-[2-[2-[(1-hydroxycyclopropyl)methyl]indazol-5-yl]-3,6-dimethyl-4-oxo-chromen-8-yl]ethoxy]pyridine-2-carboxamide]	< 500
Cc1cc([C@@H](C)Oc2ccc(Cl)nc2C(N)=O)c2oc(-c3ccccn3)c(C)c(=O)c2c1 [Example 19A, 6-Chloro-3-[(1R)-1-[3,6-dimethyl-4-oxo-2-(2-pyridyl)chromen-8-yl]ethoxy]pyridine-2-carboxamide]	< 500
Cc1cc([C@@H](C)Oc2ccc(Cl)nc2S(N)(=O)=O)c2oc(-c3ccc4nn(C)cc4c3)c(C)c(=O)c2c1 [Example 16A, 6-Chloro-3-[(1R)-1-[3,6-dimethyl-2-(2-methylindazol-5-yl)-4-oxo-chromen-8-yl]ethoxy]pyridine-2-sulfonamide]	< 500
COCCn1cc(-c2oc3c([C@@H](C)Oc4ccc(Cl)nc4S(N)(=O)=O)cc(C)cc3c(=O)c2C)cn1 [Example 117C, 6-Chloro-3-[(1R)-1-[2-[1-(2-methoxyethyl)pyrazol-4-yl]-3,6-dimethyl-4-oxo-chromen-8-yl]ethoxy]pyridine-2-sulfonamide]	< 500
Cc1cc([C@@H](C)Oc2ccc(Cl)nc2S(N)(=O)=O)c2oc(-c3cnoc3)c(C)c(=O)c2c1 [Example 12C, 6-Chloro-3-[(1R)-1-(2-isoxazol-4-yl-3,6-dimethyl-4-oxo-chromen-8-yl)ethoxy]pyridine-2-sulfonamide]	< 500
Cc1cc([C@@H](C)Oc2ccc(Cl)nc2C(N)=O)c2oc(-c3cnc4scnc4c3)c(C)c(=O)c2c1 [Example 126A, 6-Chloro-3-[(1R)-1-(3,6-dimethyl-4-oxo-2-thiazolo[5,4-b]pyridin-6-yl-chromen-8-yl)ethoxy]pyridine-2-carboxamide]	< 500
Cc1cc([C@@H](C)Oc2ccc(Cl)nc2S(N)(=O)=O)c2oc(C3COC3)c(C)c(=O)c2c1 [Example 114C, 6-Chloro-3-[(1R)-1-[3,6-dimethyl-2-(oxetan-3-yl)-4-oxo-chromen-8-yl]ethoxy]pyridine-2-sulfonamide]	< 500
CONS(=O)(=O)c1nc(F)ccc1O[C@H](C)c1cc(C)cc2c(=O)c(C)c(-c3cnn(CC(C)(C)O)c3)oc12 [Example 136C, 6-Fluoro-3-[(1R)-1-[2-[1-(2-hydroxy-2-methyl-propyl)pyrazol-4-yl]-3,6-dimethyl-4-oxo-chromen-8-yl]ethoxy]-N-methoxy-pyridine-2-sulfonamide]	< 500
Cc1cc([C@@H](C)Oc2ccc(Cl)nc2S(N)(=O)=O)c2oc(-c3ccc4nc(C)cn4c3)c(C)c(=O)c2c1 [Example 120C, 6-Chloro-3-[(1R)-1-[3,6-dimethyl-2-(2-methylimidazo[1,2-a]pyridin-6-yl)-4-oxo-chromen-8-yl]ethoxy]pyridine-2-sulfonamide]	< 500

Further lines, results first:

IC50 [nM]	SMILES
< 500	Cc1cc([C@@H](C)Oc2ccc(Cl)nc2C(N)=O)c2oc(-c3ccc4c(c3)OCC(=O)N4C)c(C)c(=O)c2c1 [Example 119A, 6-Chloro-3-[(1R)-1-[3,6-dimethyl-2-(4-methyl-3-oxo-1,4-benzoxazin-7-yl)-4-oxo-chromen-8-yl]ethoxy]pyridine-2-carboxamide]
< 500	Cc1cc([C@@H](C)Oc2ccc(Cl)nc2C(N)=O)c2oc(-c3ccc4c(c3)ncn4C)c(C)c(=O)c2c1 [Example 69A, 6-Chloro-3-[(1R)-1-[3,6-dimethyl-2-(1-methylbenzimidazol-5-yl)-4-oxo-chromen-8-yl]ethoxy]pyridine-2-carboxamide]
< 500	Cc1cc([C@@H](C)Oc2ccc(Cl)nc2C(N)=O)c2oc(-c3ccc4c(c3)C(=O)N(C)C4)c(C)c(=O)c2c1 [Example 15B, 6-Chloro-3-[(1R)-1-[3,6-dimethyl-2-(2-methyl-3-oxo-isoindolin-5-yl)-4-oxo-chromen-8-yl]ethoxy]pyridine-2-carboxamide]
< 500	Cc1cc([C@@H](C)Oc2ccc(Cl)nc2C(N)=O)c2oc(-c3ccc4c(c3)CN(C)C4=O)c(C)c(=O)c2c1 [Example 14B, 6-Chloro-3-[(1R)-1-[3,6-dimethyl-2-(2-methyl-1-oxo-isoindolin-5-yl)-4-oxo-chromen-8-yl]ethoxy]pyridine-2-carboxamide]
< 500	Cc1cc([C@@H](C)Oc2ccc(Cl)nc2C(N)=O)c2oc(-c3ccc4c(c3)OCCO4)c(C)c(=O)c2c1 [Example 65A, 6-Chloro-3-[(1R)-1-[2-(2,3-dihydro-1,4-benzodioxin-6-yl)-3,6-dimethyl-4-oxo-chromen-8-yl]ethoxy]pyridine-2-carboxamide]
< 500	Cc1cc([C@@H](C)Oc2ccc(Cl)nc2C(N)=O)c2oc(-c3ccc4nsnc4c3)c(C)c(=O)c2c1 [Example 140A, 3-[(1R)-1-[2-(2,1,3-Benzothiadiazol-5-yl)-3,6-dimethyl-4-oxo-chromen-8-yl]ethoxy]-6-chloro-pyridine-2-carboxamide]
< 500	Cc1cc([C@@H](C)Oc2ccc(Cl)nc2C(N)=O)c2oc(-c3ccc4c(c3)CCN(C)C4)c(C)c(=O)c2c1 [Example 71A, 6-Chloro-3-[(1R)-1-[3,6-dimethyl-2-(2-methyl-3,4-dihydro-1H-isoquinolin-6-yl)-4-oxo-chromen-8-yl]ethoxy]pyridine-2-carboxamide]
< 500	Cc1cc([C@@H](C)Oc2ccc(Cl)nc2C(N)=O)c2oc(-c3ccc4c(c3)CCNC4=O)c(C)c(=O)c2c1 [Example 116A, 6-Chloro-3-[(1R)-1-[3,6-dimethyl-4-oxo-2-(1-oxo-3,4-dihydro-2H-isoquinolin-6-yl)chromen-8-yl]ethoxy]pyridine-2-carboxamide]
< 500	Cc1cc([C@@H](C)Oc2ccc(Cl)nc2C(N)=O)c2oc(-c3ccc4nn(C)c(F)c4c3)c(C)c(=O)c2c1 [Example 48C, 6-Chloro-3-[(1R)-1-[2-(3-fluoro-2-methyl-indazol-5-yl)-3,6-dimethyl-4-oxo-chromen-8-yl]ethoxy]pyridine-2-carboxamide]
< 500	Cc1cc([C@@H](C)Oc2ccc(Cl)nc2C(N)=O)c2oc(-c3cnn(C)c3)c(C)c(=O)c2c1 [Example 22A, 6-Chloro-3-[(1R)-1-[3,6-dimethyl-2-(1-methylpyrazol-4-yl)-4-oxo-chromen-8-yl]ethoxy]pyridine-2-carboxamide]

Target: T1, PI3Kα E545K
Experiment: PI3Kα E545K mutant in vitro cell based assay, MDA-MB-361 cells
Set-up: MDA-MB-361 (ATCC-HTB-27) cell line (PI3Kα E545K); host or cells: MDA-MB-361
Details: MDA-MB-361 cell line, 0% FBS, no insulin, 3 hours treatment
How it was run: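 Compound exposure lasted 3 hours, in duplicate 10-point 1:3 dilutions at 0.3% DMSO final, on overnight-attached MDA-MB-361 cells carrying PI3Kα E545K in insulin-free, 0% FBS MEM. Lysates read by SureFire AlphaLISA. Relative IC50 from 4-parameter logistic fit versus DMSO and 1 μM GDC-0032 controls.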

IC50 [nM]	SMILES
< 500	Cc1cc([C@@H](C)Oc2ccc(Cl)nc2C(N)=O)c2oc(-c3ccc4c(c3)OCC(=O)N4C)c(C)c(=O)c2c1 [Example 119A, 6-Chloro-3-[(1R)-1-[3,6-dimethyl-2-(4-methyl-3-oxo-1,4-benzoxazin-7-yl)-4-oxo-chromen-8-yl]ethoxy]pyridine-2-carboxamide]
< 500	Cc1cc([C@@H](C)Oc2ccc(Cl)nc2C(N)=O)c2oc(-c3ccc4nn(CC5(O)CC5)cc4c3)c(C)c(=O)c2c1 [Example 130C, 6-Chloro-3-[(1R)-1-[2-[2-[(1-hydroxycyclopropyl)methyl]indazol-5-yl]-3,6-dimethyl-4-oxo-chromen-8-yl]ethoxy]pyridine-2-carboxamide]
< 500	Cc1cc([C@@H](C)Oc2ccc(Cl)nc2S(N)(=O)=O)c2oc(-c3ccc4nn(C)cc4c3)c(C)c(=O)c2c1 [Example 16A, 6-Chloro-3-[(1R)-1-[3,6-dimethyl-2-(2-methylindazol-5-yl)-4-oxo-chromen-8-yl]ethoxy]pyridine-2-sulfonamide]
< 500	COCCn1cc(-c2oc3c([C@@H](C)Oc4ccc(Cl)nc4S(N)(=O)=O)cc(C)cc3c(=O)c2C)cn1 [Example 117C, 6-Chloro-3-[(1R)-1-[2-[1-(2-methoxyethyl)pyrazol-4-yl]-3,6-dimethyl-4-oxo-chromen-8-yl]ethoxy]pyridine-2-sulfonamide]
